Series [1] addresses T1, 5-HT6 receptor (Homo sapiens, UniProt P50406). In words: Binding assay for human 5-HT6 receptor ([3H]LSD radioligand). The conditions noted are these: human recombinant receptor in HEK293 cells, [3H]LSD 1.5 nM; for inhibition at 0.1 µM: 100 nM test compound, read-out: Radioligand binding data at 5-HT6 R (h) % Inhibition of specific binding at 100 nM; for Ki: 37° C., read-out: Radioligand binding data at 5-HT6 R (h) Ki. Also on record: expressed in transfected cells; host or cells: HEK293. The procedure: Compounds can be tested according to the following the procedures.
Receptor source: Human recombinant expressed in HEK293 cells
Radioligand: [^3H]LSD (60-80 Ci/mmol)
Final ligand concentration—[1.5 nM]
Non-specific determinant: Methiothepin mesylate—[0.1 μM]
Reference compound: Methiothepin mesylate
Positive control: Methiothepin mesylate
Reactions were carried out in […] TRIS-HCl (pH 7.4) containing […] MgCl2, 0.5 mM EDTA for […] at 37° C. The reaction was terminated by rapid vacuum filtration onto glass fiber filters. Radioactivity trapped onto the filters was determined and compared to control values in order to ascertain any interactions of test compound(s) with the cloned serotonin 5-HT6 binding site.
Mol. Pharmacol. (43): 320-327 (1993).

Series [2] has as its target T1, 5-HT6 receptor. The conditions noted are these: literature; cited from earlier work.

Structures can show the parent of a compound that is named as a salt.

T1 sequence (P50406 whole entry): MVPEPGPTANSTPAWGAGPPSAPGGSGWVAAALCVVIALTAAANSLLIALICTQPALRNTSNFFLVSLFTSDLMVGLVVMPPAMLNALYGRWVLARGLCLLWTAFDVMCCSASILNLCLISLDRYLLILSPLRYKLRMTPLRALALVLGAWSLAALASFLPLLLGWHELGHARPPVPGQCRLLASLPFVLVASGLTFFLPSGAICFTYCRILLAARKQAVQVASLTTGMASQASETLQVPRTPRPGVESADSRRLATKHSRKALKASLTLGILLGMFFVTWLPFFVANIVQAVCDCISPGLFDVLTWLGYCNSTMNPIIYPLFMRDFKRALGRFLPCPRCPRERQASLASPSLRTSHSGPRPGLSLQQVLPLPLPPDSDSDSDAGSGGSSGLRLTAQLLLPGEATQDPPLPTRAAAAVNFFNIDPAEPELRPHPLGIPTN

In the case of `COc1ccc(S(=O)(=O)n2ccc3cc(F)ccc32)cc1OC1CCN(C)CC1` [Example 58, 5-Fluoro-1-[4′-methoxy-3′-(1-methylpiperidin-4-yloxy)benzenesulfonyl]-1H-indole], the inhibition (as a rule, the change of the read-out against control, counted positive when it falls) at 0.1 µM at 5-HT6 receptor [1] came to 91.6%.
For the compound `Cl.O=S(=O)(c1ccc(Cl)c(OC2CCNCC2)c1)n1ccc2ccc(Cl)cc21`, the melting point (in general, the temperature of the solid-liquid transition) lay within 258.3 to 259.5 °C.
As to `COc1ccc2c(ccn2S(=O)(=O)c2ccc(C(C)C)c(OCCCN(C)C)c2)c1` [Example 43, 1-[4′-Isopropyl-3′-(N,N-dimethylaminopropoxy)benzenesulfonyl]-5-Methoxy-1H-indole], the Ki (commonly the dissociation constant of the complex between target and ligand, obtained from inhibition or displacement) at 5-HT6 receptor [1] was determined as 62.5 nM.
As to `Cc1ccc(S(=O)(=O)n2cc(C)c3ccccc32)cc1OC1CCN(C)CC1` [Example 54, 3-Methyl-1-[4′-methyl-3′-(1-methylpiperidin-4-yloxy)benzenesulfonyl]-1H-indole], the inhibition at 0.1 µM on 5-HT6 receptor [1] was determined as 99.7%.
For `Cc1ccc(S(=O)(=O)n2ccc3ccc(Cl)cc32)cc1OCCCN(C)C` [Example 21, 6-Chloro-1-[4′-methyl-3′-(N,N-dimethylaminopropoxy)benzenesulfonyl]-1H-indole], the Ki at 5-HT6 receptor [1] is 13.1 nM.
On to `COc1ccc2c(c1)c(C)cn2S(=O)(=O)c1ccc(C(C)C)c(OC2CCN(C)CC2)c1` [Example 61, 5-Methoxy-3-methyl-1-[4′-isopropyl-3′-(1-methylpiperidin-4-yloxy)benzenesulfonyl]-1H-indole], for which the melting point was in the range of 73.2 to 74.5 °C.
Take `CN1CCC(Oc2cccc(S(=O)(=O)n3ccc4cc(F)ccc43)c2)CC1` [Example 8, 5-Fluoro-1-[3′-(1-methylpiperidin-4-yloxy)benzenesulfonyl]-1H-indole]: the inhibition at 0.1 µM on 5-HT6 receptor [1] was 61.7%.
As for `CCc1ccc(S(=O)(=O)n2ccc3ccccc32)cc1OCCN(C)C` [Example 26, 1-[4′-Ethyl-3′-(N,N-dimethylaminoethoxy)benzenesulfonyl]-1H-indole], the Ki at 5-HT6 receptor [1] worked out at 1.9 nM.
For the compound `CCc1ccc(S(=O)(=O)n2ccc3cc(Br)ccc32)cc1OCCCN(C)C` [Example 32, 5-Bromo-1-[4′-Ethyl-3′-(N,N-dimethylaminopropoxy)benzenesulfonyl]-1H-indole], at 5-HT6 receptor [1], the Ki came out at 7.55 nM.
In the case of `CN1CCC(Oc2cc(S(=O)(=O)n3ccc4cc(F)ccc43)ccc2Cl)CC1` [Example 59, 5-Fluoro-1-[4′-chloro-3′-(1-methylpiperidin-4-yloxy)benzenesulfonyl]-1H-indole], at 5-HT6 receptor [1], the inhibition at 0.1 µM turned out to be 89.8%.
As to `Cc1ccc(S(=O)(=O)n2ccc3cc(Br)ccc32)cc1OCCN(C)C` [Example 12, 5-Bromo-1-[4′-methyl-3′-(N,N-dimethylaminoethoxy)benzenesulfonyl]-1H-indole], the Ki on 5-HT6 receptor [1] amounted to 28.3 nM.
Consider `CN(C)CCC=C1c2ccccc2CCc2ccccc21` [amitriptyline], for which the “Affinity for the 5-HT6 receptor (in words)” value at 5-HT6 receptor [2] is on record as “high affinity”.
Regarding `CCc1ccc(S(=O)(=O)n2ccc3cc(F)ccc32)cc1OCCCN(C)C` [Example 35, 1-[4′-Ethyl-3′-(N,N-dimethylaminopropoxy)benzenesulfonyl]-5-fluoro-1H-indole], the Ki at 5-HT6 receptor [1] was 18.8 nM.
Turning to `Cc1ccc(S(=O)(=O)n2ccc3ccccc32)cc1OCCN(C)C` [Example 10, 1-[4′-Methyl-3′-(N,N-dimethylaminoethoxy)benzenesulfonyl]-1H-indole], the Ki at 5-HT6 receptor [1] was 2.75 nM.
Take `COc1ccc(S(=O)(=O)n2ccc3cc(Br)ccc32)cc1OC1CCN(C)CC1` [Example 63, 5-Bromo-1-[4′-methoxy-3′-(1-methylpiperidin-4-yloxy)benzenesulfonyl]-1H-indole]: the melting point is 127.2 to 128 °C.
For the compound `Cc1ccc(S(=O)(=O)n2ccc3cc(F)ccc32)cc1OCCN(C)C` [Example 11, 5-Fluoro-1-[4′-methyl-3′-(N,N-dimethylaminoethoxy)benzenesulfonyl]-1H-indole], on 5-HT6 receptor [1], the Ki amounted to 5.87 nM.
In the case of `COc1ccc2c(ccn2S(=O)(=O)c2ccc(C)c(OCCCN(C)C)c2)c1` [Example 19, 1-[4′-Methyl-3′-(N,N-dimethylaminopropoxy)benzenesulfonyl]-5-methoxy-1H-indole], the Ki on 5-HT6 receptor [1] is 30.9 nM.
In turn, `CCc1ccc(S(=O)(=O)n2cc(Br)c3cc(F)ccc32)cc1OC1CCNCC1.Cl` came in with a melting point of 289.9 to 291.5 °C.
On to `CCc1ccc(S(=O)(=O)n2ccc3cc(OC)ccc32)cc1OC1CCN(C)CC1` [Example 55, 5-Methoxy-1-[4-ethyl-3-(1-methylpiperidin-4-yloxy)benzenesulfonyl]-1H-indole], for which the inhibition at 0.1 µM at 5-HT6 receptor [1] amounted to 89%.
With `CCc1ccc(S(=O)(=O)n2ccc3cc(F)ccc32)cc1OCCN(C)C` [Example 30, 1-[4′-Ethyl-3′-(N,N-dimethylaminoethoxy)benzenesulfonyl]-5-fluoro-1H-indole], the Ki at 5-HT6 receptor [1] is 5.44 nM.
On the same count and under the same terms, the result for `Cc1ccc(S(=O)(=O)n2ccc3c(Cl)cccc32)cc1OCCCN(C)C` [Example 79, 4-Chloro-1-[4′-Methyl-3′-(N,N-dimethylaminopropoxy)benzenesulfonyl]-1H-indole] reads 13.6 nM.
Turning to `COc1ccc2c(ccn2S(=O)(=O)c2cccc(OC3CCN(C)CC3)c2)c1` [Example 9, 5-Methoxy-1-[3′-(1-methylpiperidin-4-yloxy)benzenesulfonyl]-1H-indole], at 5-HT6 receptor [1], the inhibition at 0.1 µM turned out to be 58.2%.
In the case of `COc1ccc2c(ccn2S(=O)(=O)c2ccc(C)c(OCCN(C)C)c2)c1` [Example 13, 1-[4′-Methyl-3′-(N,N-dimethylaminoethoxy)benzenesulfonyl]-5-methoxy-1H-indole], at 5-HT6 receptor [1], the Ki was found to be 11.2 nM.
As to `COc1ccc2c(ccn2S(=O)(=O)c2ccc(C(C)C)c(OC3CCN(C)CC3)c2)c1` [Example 52, 5-Methoxy-1-[4′-isopropyl-3′-(1-methylpiperidin-4-yloxy)benzenesulfonyl]-1H-indole], the inhibition at 0.1 µM on 5-HT6 receptor [1] was 31.5%.
With `CCOc1ccc2c(ccn2S(=O)(=O)c2ccc(C)c(OCCCN(C)C)c2)c1` [Example 20, 5-Ethoxy-1-[4′-methyl-3′-(N,N-dimethylaminopropoxy)benzenesulfonyl]-1H-indole], the Ki at 5-HT6 receptor [1] turned out to be 12.4 nM.
On to `CC(C)c1ccc(S(=O)(=O)n2ccc3ccccc32)cc1OCCN(C)C` [Example 36, 1-[4′-Isopropyl-3′-(N,N-dimethylaminoethoxy)benzenesulfonyl]-1H-indole], for which the Ki at 5-HT6 receptor [1] came out at 13.9 nM.
In the case of `Cc1ccc(S(=O)(=O)n2ccc3ccc(Cl)cc32)cc1OCCN(C)C` [Example 15, 6-Chloro-1-[4′-methyl-3′-(N,N-dimethylaminoethoxy)benzenesulfonyl]-1H-indole], the Ki at 5-HT6 receptor [1] stood at 1.57 nM.
Consider `Cc1ccc(S(=O)(=O)n2ccc3cc(Br)ccc32)cc1OCCCN(C)C` [Example 18, 5-Bromo-1-[4′-Methyl-3′-(N,N-dimethylaminopropoxy)benzenesulfonyl]-1H-indole], for which the Ki at 5-HT6 receptor [1] came out at 11.8 nM.
Compound `CC(C)c1ccc(S(=O)(=O)n2ccc3cc(F)ccc32)cc1OC1CCN(C)CC1` [Example 53, 5-Fluoro-1-[4′-isopropyl-3′-(1-methylpiperidin-4-yloxy)benzenesulfonyl]-1H-indole] showed a melting point of 73.2 to 74.5 °C. Moreover, the inhibition at 0.1 µM at 5-HT6 receptor [1] was 66.9%.
For `Cc1ccc(S(=O)(=O)n2ccc3ccccc32)cc1OCCCN(C)C` [Example 16, 1-[4′-Methyl-3′-(N,N-dimethylaminopropoxy)benzenesulfonyl]-1H-indole], at 5-HT6 receptor [1], the Ki came to 1.86 nM.
As for `Cc1ccc(S(=O)(=O)n2ccc3cc(F)ccc32)cc1OC1CCN(C)CC1` [Example 24, 5-Fluoro-1-(4′-methyl-3′-(1-methylpiperidin-4-yloxy)benzenesulfonyl)-1H-indole hydrochloride], the inhibition at 0.1 µM at 5-HT6 receptor [1] was determined as 89.4%.
Take `CCc1ccc(S(=O)(=O)n2ccc3ccccc32)cc1OCCCN(C)C` [Example 31, 1-[4′-Ethyl-3′-(N,N-dimethylaminopropoxy)benzenesulfonyl]-1H-indole]: the Ki at 5-HT6 receptor [1] was 35.2 nM.
In the case of `COc1ccc2c(ccn2S(=O)(=O)c2ccc(OC)c(OC3CCNCC3)c2)c1.Cl` [Example 56, 5-Methoxy-1-[4′-methoxy-3′-(piperidin-4-yloxy)benzenesulfonyl]-1H-indole hydrochloride], the melting point lay within 231.2 to 232.7 °C. For the same compound, the inhibition at 0.1 µM at 5-HT6 receptor [1] was found to be 88.6%.
Regarding `COc1ccc(S(=O)(=O)n2ccc3ccc(Cl)cc32)cc1OC1CCN(C)CC1` [Example 62, 6-Chloro-1-[4′-methoxy-3′-(1-methylpiperidin-4-yloxy)benzenesulfonyl]-1H-indole], the melting point lay within 112 to 115 °C.
With `Cc1ccc(S(=O)(=O)n2ccc3cc(F)ccc32)cc1OCCCN(C)C` [Example 17, 5-Fluoro-1-[4′-Methyl-3′-(N,N-dimethylaminopropoxy)benzenesulfonyl]-1H-indole], on 5-HT6 receptor [1], the Ki is 12.5 nM.
As for `CCc1ccc(S(=O)(=O)n2ccc3ccc(Cl)cc32)cc1OCCCN(C)C` [Example 33, 1-[4′-Ethyl-3′-(N,N-dimethylaminopropoxy)benzenesulfonyl]-6-chloro-1H-indole], the Ki on 5-HT6 receptor [1] was 5.8 nM.
Regarding `CCc1ccc(S(=O)(=O)n2ccc3cc(F)ccc32)cc1OC1CCNCC1.Cl`, the melting point is 201.46 to 204.21 °C.
Regarding `CCc1ccc(S(=O)(=O)n2cc(Br)c3cc(F)ccc32)cc1OC1CCN(C)CC1` [Example 67, 3-Bromo-5-fluoro-1-[4′-ethyl-3′-(1-methylpiperidin-4-yloxy)benzenesulfonyl]-1H-indole], the melting point was in the range of 133.2 to 134.5 °C.
With `CN1CCN2c3ccccc3Cc3ccccc3C2C1` (centres unmarked) [mianserin], the “Affinity for the 5-HT6 receptor (in words)” value on 5-HT6 receptor [2] is listed as “high affinity”.

Source of the values: patent US8003670B2, “Aminoalkoxy aryl sulfonamide compounds and their use as 5-HT6 ligands” (Suven Life Sciences Limited, priority 2007, dated 2011).
